Drawing on US12440496B2, “Natriuretic peptide receptor a agonists useful for the treatment of cardiometabolic diseases, kidney disease and diabetes” (Merck Sharp & Dohme LLC, priority 2019, dated 2025), this text covers EC50 for five compounds.

pEC50: −log10 of the molar value.

The target in this experiment is T1, hNPRA (Homo sapiens, UniProt P16066).
T1 construct: expressed in transfected cells
T1 sequence (P16066 33-1061): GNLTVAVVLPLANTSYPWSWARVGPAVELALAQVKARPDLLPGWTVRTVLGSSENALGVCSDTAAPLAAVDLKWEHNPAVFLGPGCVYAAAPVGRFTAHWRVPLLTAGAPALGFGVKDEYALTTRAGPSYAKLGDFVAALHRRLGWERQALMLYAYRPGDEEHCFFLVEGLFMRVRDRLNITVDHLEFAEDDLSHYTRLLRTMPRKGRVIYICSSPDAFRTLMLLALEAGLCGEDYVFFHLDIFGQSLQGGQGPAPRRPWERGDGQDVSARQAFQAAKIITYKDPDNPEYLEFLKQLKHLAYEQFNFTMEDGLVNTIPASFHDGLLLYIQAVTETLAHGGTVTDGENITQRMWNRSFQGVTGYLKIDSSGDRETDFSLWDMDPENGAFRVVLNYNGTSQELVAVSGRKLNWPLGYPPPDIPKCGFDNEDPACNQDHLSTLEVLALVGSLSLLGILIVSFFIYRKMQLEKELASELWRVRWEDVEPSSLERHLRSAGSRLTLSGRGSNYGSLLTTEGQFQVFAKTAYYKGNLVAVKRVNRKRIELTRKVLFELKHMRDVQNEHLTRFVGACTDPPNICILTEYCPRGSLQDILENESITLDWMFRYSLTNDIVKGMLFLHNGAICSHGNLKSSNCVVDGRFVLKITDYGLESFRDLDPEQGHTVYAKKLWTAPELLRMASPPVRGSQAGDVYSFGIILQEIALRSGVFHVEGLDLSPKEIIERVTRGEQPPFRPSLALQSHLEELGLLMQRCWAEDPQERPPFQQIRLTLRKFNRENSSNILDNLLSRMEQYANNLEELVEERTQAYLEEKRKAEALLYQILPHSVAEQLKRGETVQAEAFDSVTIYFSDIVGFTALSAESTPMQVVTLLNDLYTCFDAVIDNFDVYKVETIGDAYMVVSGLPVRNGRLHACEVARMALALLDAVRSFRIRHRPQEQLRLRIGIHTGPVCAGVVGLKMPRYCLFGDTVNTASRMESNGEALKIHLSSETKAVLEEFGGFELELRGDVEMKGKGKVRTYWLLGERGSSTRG
Briefly: NPRA Functional Cell Assay (cGMP HTRF, NPRA HEK JumpIn stable cells). Particulars: cGMP production, 1 hour at 37° C., 10-point dose response. Format: cell-based. The essentials:
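cGMP HTRF read-out after 1 hour compound treatment at 37° C. of human NPRA-expressing HEK JumpIn cells, 1500 cells/well, in buffer with phosphodiesterase inhibitors IBMX and RO20 (100 uM each). Signal converted to [cGMP] by calibration curve; EC50s fitted by 4-parameter logistic; 50 nM h-ANP as positive response.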
(In general: Time-resolved FRET reads energy transfer from a long-lived donor to a nearby acceptor.)
Turning to `COC(=O)C1CCN(CC[C@@H](NC(=O)c2nc3cc4c(nc3s2)CC[C@@](F)(C(C)C)C4)c2ccc(-c3ccnnc3)nc2)CC1` [Example 269, methyl 1-((R)-3-((S)-7-fluoro-7-isopropyl-5,6,7,8-tetrahydrothiazolo[5,4-b]quinoline-2-carboxamido)-3-(6-(pyridazin-4-yl)pyridin-3-yl)propyl)piperidine-4-carboxylate], the pEC50 is 5.73.
Compound `CC(C)[C@]1(F)CCc2nc3sc(C(=O)N[C@H](CCN4CCC(C(=O)O)CC4)c4ccc(-c5ccnnc5)nc4)nc3cc2C1` [Example 270, 1-((R)-3-((S)-7-fluoro-7-isopropyl-5,6,7,8-tetrahydrothiazolo[5,4-b]quinoline-2-carboxamido)-3-(6-(pyridazin-4-yl)pyridin-3-yl)propyl)piperidine-4-carboxylic acid] showed a pEC50 of 5.92.
Turning to `CC(C)(C)[C@@H]1CCc2nc3sc(C(=O)N[C@H](CCN4CCC(c5nn[nH]n5)CC4)c4ccc(-c5cnc(O)c(F)c5)cc4)nc3cc2C1` [Example 271, (R)-N-((R)-3-(4-(2H-tetrazol-5-yl)piperidin-1-yl)-1-(4-(5-fluoro-6-hydroxypyridin-3-yl)phenyl)propyl)-7-(tert-butyl)-5,6,7,8-tetrahydrothiazolo[5,4-b]quinoline-2-carboxamide], the pEC50 is 5.96.
To `CC(C)(C)[C@H]1CCc2nc3sc(C(=O)NC(CCN4CCCC4)c4ccncc4)nc3cc2C1` (stereo partly drawn) [Example 272, (7S)-7-(tert-butyl)-N-(1-(pyridin-4-yl)-3-(pyrrolidin-1-yl)propyl)-5,6,7,8-tetrahydrothiazolo[5,4-b]quinoline-2-carboxamide] belongs 6.03; to `CC(C)(C)[C@H]1CCc2nc3sc(C(=O)N[C@H](CCN4CCC(O)CC4)c4ccc(N5CCOCS5(=O)=O)nc4)nc3cc2C1` [Example 273, (S)-7-(tert-butyl)-N-((R)-1-(6-(3,3-dioxido-1,3,4-oxathiazinan-4-yl)pyridin-3-yl)-3-(4-hydroxypiperidin-1-yl)propyl)-5,6,7,8-tetrahydrothiazolo[5,4-b]quinoline-2-carboxamide], 6.74.

Usually pEC50 stands for the EC50 on a negative log10 scale, so that one unit is a factor of ten. A lower pEC50 goes with a high EC50.
